According to patent publication EP3807270B1, “NOVEL HETEROARYL HETEROCYCLYL COMPOUNDS FOR THE TREATMENT OF AUTOIMMUNE DISEASE” (F. Hoffmann-La Roche AG, priority 2018, dated 2019):

Experiments:
hERG channel = target: T1, hERG channel (Homo sapiens, UniProt Q12809); assay: hERG channel inhibition assay (patch-clamp, CHO hERG cells); format: cell-based; conditions: for IC50 / IC20: CHO hERG cells, whole-cell patch-clamp; for IC20: human, CHO cells stably expressing hERG; for hERG IC20 / TLR8 IC50 / hERG IC20 / TLR7 IC50 / hERG IC20 / TLR9 IC50: safety ratio; for hERG IC20 / TLR7 IC50: TLR7 IC50 of ER compounds from Table 1; for hERG IC20 / TLR9 IC50: TLR9 IC50 of ER compounds from Table 1
T1 construct: expressed in transfected cells; host or cells: CHO (Chinese hamster ovary)
Experimental: The hERG K^+ channels were cloned in humans and stably expressed in a CHO (Chinese hamster ovary) cell line. CHOhERG cells were used for patch-clamp (voltage-clamp, whole-cell) experiments. Cells were stimulated by a voltage pattern to activate hERG channels and conduct IKhERG currents (rapid delayed outward rectifier potassium current of the hERG channel). After the cells were stabilized for a few minutes, the amplitude and kinetics of IKhERG were recorded at a stimulation frequency of 0.1 Hz (6 bpm). Thereafter, the test compound was added to the preparation at increasing concentrations. For each concentration, an attempt was made to reach a steady-state effect, usually, this was achieved within 3-10 min at which time the next highest concentration was applied. The amplitude and kinetics of IKhERG are recorded in each concentration of the drug which were compared to the control values (taken as 100%). (references: Redfern WS, Carlsson L, Davis AS, Lynch WG, MacKenzie I, Palethorpe S, Siegl PK, Strang I, Sullivan AT, Wallis R, Camm AJ, Hammond TG. 2003; Relationships between preclinical cardiac electrophysiology, clinical QT interval prolongation and torsade de pointes for a broad range of drugs: evidence for a provisional safety margin in drug development. Cardiovasc. Res. 58:32-45, Sanguinetti MC, Tristani-Firouzi M. 2006; hERG potassium channels and cardiac arrhythmia. Nature 440:463-469, Webster R, Leishman D, Walker D. 2002; Towards a drug concentration effect relationship for QT prolongation and torsades de pointes. Curr. Opin. Drug Discov. Devel. 5:116-26).
Table 3. hERG and safety ratio results

[1] = Human microsome stability assay; format: in vitro ADME; conditions: 1 µM test compound, 0.5 mg/mL liver microsomal protein, 37 °C
In short: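 Test compound at 1 µM was incubated with human liver microsomes (0.5 mg/mL protein) and an NADPH-regenerating system in 100 mM potassium phosphate, pH 7.4, at 37 °C. Samples were taken at 0–30 min and quenched with acetonitrile. Remaining compound was quantified by LC-MS/MS, with no-NADPH controls.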

T1 sequence (Q12809 whole entry): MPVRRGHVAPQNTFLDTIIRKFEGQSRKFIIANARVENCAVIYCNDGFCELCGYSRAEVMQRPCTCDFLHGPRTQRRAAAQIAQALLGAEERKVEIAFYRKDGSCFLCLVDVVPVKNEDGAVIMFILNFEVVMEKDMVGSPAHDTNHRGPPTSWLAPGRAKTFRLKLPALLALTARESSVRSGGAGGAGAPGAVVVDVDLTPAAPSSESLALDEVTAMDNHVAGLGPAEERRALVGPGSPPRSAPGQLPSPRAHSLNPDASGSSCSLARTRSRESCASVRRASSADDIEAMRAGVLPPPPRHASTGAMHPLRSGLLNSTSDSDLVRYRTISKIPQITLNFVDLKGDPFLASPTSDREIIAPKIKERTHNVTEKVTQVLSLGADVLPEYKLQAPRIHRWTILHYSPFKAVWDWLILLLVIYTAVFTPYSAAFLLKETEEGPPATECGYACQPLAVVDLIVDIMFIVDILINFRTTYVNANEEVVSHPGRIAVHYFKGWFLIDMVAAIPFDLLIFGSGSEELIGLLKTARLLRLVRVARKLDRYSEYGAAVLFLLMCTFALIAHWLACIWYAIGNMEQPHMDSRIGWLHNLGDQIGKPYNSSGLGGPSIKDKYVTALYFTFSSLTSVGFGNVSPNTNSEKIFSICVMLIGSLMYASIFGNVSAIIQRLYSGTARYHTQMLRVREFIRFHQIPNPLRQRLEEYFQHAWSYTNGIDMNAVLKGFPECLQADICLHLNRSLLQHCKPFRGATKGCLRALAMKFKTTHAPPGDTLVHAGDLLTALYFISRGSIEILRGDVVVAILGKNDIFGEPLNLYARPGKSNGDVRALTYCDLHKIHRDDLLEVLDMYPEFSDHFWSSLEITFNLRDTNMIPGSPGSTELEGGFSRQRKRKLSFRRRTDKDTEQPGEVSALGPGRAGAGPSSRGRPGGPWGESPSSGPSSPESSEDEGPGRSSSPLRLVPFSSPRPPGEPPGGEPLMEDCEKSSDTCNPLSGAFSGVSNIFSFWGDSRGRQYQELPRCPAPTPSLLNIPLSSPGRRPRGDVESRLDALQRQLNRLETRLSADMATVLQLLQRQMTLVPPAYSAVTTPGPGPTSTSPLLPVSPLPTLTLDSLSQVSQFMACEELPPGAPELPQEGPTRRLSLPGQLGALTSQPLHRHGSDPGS

C[C@@H]1Cc2cc(N3CCN(C[C@H]4CN(c5ccc(C#N)c6ncccc56)C[C@@H](C)O4)CC3)ncc2CN1 (single isomer, unassigned) [Example 70]
IC50 (hERG channel): > 20 µM
IC20 (hERG channel): > 10 µM
hERG IC20 / TLR8 IC50 (hERG channel): >2439.0
hERG IC20 / TLR7 IC50 (hERG channel): >390.6
hERG IC20 / TLR9 IC50 (hERG channel): >120.91
Clearance of Human microsome [1]: 7.55 mL/min/kg

C[C@@H]1CN(c2ccc(C#N)c3ncccc23)C[C@H](CN2CCN(c3cc4c(cn3)CCN[C@@H]4C)CC2)O1 (single isomer, unassigned) [Example 74]
IC50 (hERG channel): > 20 µM
IC20 (hERG channel): > 10 µM
hERG IC20 / TLR8 IC50 (hERG channel): >2857.1
hERG IC20 / TLR7 IC50 (hERG channel): >1470.6
hERG IC20 / TLR9 IC50 (hERG channel): >112.1
Clearance of Human microsome [1]: 7.39 mL/min/kg

C[C@@H]1CN(c2ccc(C#N)c3ncccc23)C[C@H](CN2CCN(c3cc4c(cn3)C[C@H](C)NC4)CC2)O1 (single isomer, unassigned) [Example 76]
IC50 (hERG channel): > 20 µM
IC20 (hERG channel): > 10 µM
hERG IC20 / TLR8 IC50 (hERG channel): >1960.8
hERG IC20 / TLR7 IC50 (hERG channel): >714.3
hERG IC20 / TLR9 IC50 (hERG channel): >102.7
Clearance of Human microsome [1]: 6.15 mL/min/kg

C[C@@H]1Cc2cnc(N3CCN(C[C@H]4CN(c5ccc(C#N)c6ncccc56)C[C@@H](C)O4)CC3)cc2CN1 (single isomer, unassigned) [Example 77]
IC50 (hERG channel): > 20 µM
IC20 (hERG channel): > 10 µM
hERG IC20 / TLR8 IC50 (hERG channel): >1515.2
hERG IC20 / TLR7 IC50 (hERG channel): >885.0
hERG IC20 / TLR9 IC50 (hERG channel): >86.9
Clearance of Human microsome [1]: 6.34 mL/min/kg

C[C@@H]1CN(c2ccc(C#N)c3ncccc23)C[C@H](CN2CCN(c3ccc4c(c3)CNC4)CC2)O1 [Example 7, 5-[(2S,6R)-2-[(4-isoindolin-5-ylpiperazin-1-yl)methyl]-6-methyl-morpholin-4-yl] quinoline-8-carbonitrile]
IC50 (hERG channel): > 20 µM
IC20 (hERG channel): 5.74 µM
hERG IC20 / TLR8 IC50 (hERG channel): 194.6
hERG IC20 / TLR7 IC50 (hERG channel): 146.5
hERG IC20 / TLR9 IC50 (hERG channel): 64.5
Clearance of Human microsome [1]: 8.75 mL/min/kg

C[C@@H]1CN(c2ccc(C#N)c3ncccc23)C[C@H](CN2CCN(c3cc4c(cn3)CCNC4)CC2)O1 [Example 20, 5-[(2R,6S)-2-methyl-6-[[4-(5,6,7,8-tetrahydro-2,6-naphthyridin-3-yl)piperazin-1-yl]methyl]morpholin-4-yl]quinoline-8-carbonitrile]
IC50 (hERG channel): > 20 µM
IC20 (hERG channel): > 10 µM
hERG IC20 / TLR8 IC50 (hERG channel): >1666.7
hERG IC20 / TLR7 IC50 (hERG channel): >1298.7
hERG IC20 / TLR9 IC50 (hERG channel): >139.1
Clearance of Human microsome [1]: 6.43 mL/min/kg

C[C@@H]1CN(c2ccc(C#N)c3ncccc23)C[C@H](CN2CCN(c3ccc4c(c3)C(O)CNC4)CC2)O1 (stereo partly drawn) [Example 22, 5-[(2S,6R)-2-[[4-(4-hydroxy-1,2,3,4-tetrahydroisoquinolin-6-yl)piperazin-1-yl]methyl]-6-methyl-morpholin-4-yl]quinoline-8-carbonitrile]
IC50 (hERG channel): > 20 µM
IC20 (hERG channel): > 10 µM
hERG IC20 / TLR8 IC50 (hERG channel): >520.8
hERG IC20 / TLR7 IC50 (hERG channel): >259.7
hERG IC20 / TLR9 IC50 (hERG channel): >222.7
Clearance of Human microsome [1]: 6.82 mL/min/kg

C[C@@H]1CN(c2ccc(C#N)c3ncccc23)C[C@H](CN2CCN(c3cnc4c(c3)CCNC4)CC2)O1 [Example 23, 5-[(2R,6S)-2-methyl-6-[[4-(5,6,7,8-tetrahydro-1,7-naphthyridin-3-yl)piperazin-1-yl]methyl]morpholin-4-yl]quinoline-8-carbonitrile]
IC50 (hERG channel): > 20 µM
IC20 (hERG channel): > 10 µM
hERG IC20 / TLR8 IC50 (hERG channel): >934.6
hERG IC20 / TLR7 IC50 (hERG channel): >170.6
hERG IC20 / TLR9 IC50 (hERG channel): >170.1
Clearance of Human microsome [1]: 6.15 mL/min/kg

C[C@@H]1CN(c2ccc(C#N)c3ncccc23)C[C@H](CN2CCN(c3ccc4c(n3)CNCC4)CC2)O1 [Example 69, 5-[(2R,6S)-2-methyl-6-[[4-(5,6,7,8-tetrahydro-1,7-naphthyridin-2-yl)piperazin-1-yl]methyl]morpholin-4-yl]quinoline-8-carbonitrile]
IC50 (hERG channel): > 20 µM
IC20 (hERG channel): 8.65 µM
hERG IC20 / TLR8 IC50 (hERG channel): 1879.8
hERG IC20 / TLR7 IC50 (hERG channel): 697.4
hERG IC20 / TLR9 IC50 (hERG channel): 104.3
Clearance of Human microsome [1]: 6.23 mL/min/kg

C[C@@H]1CN(c2ccc(C#N)c3nccnc23)C[C@H](CN2CCN(c3cc4c(cn3)CCNC4)CC2)O1 [Example 80, 8-[(2R,6S)-2-methyl-6-[[4-(5,6,7,8-tetrahydro-2,6-naphthyridin-3-yl)piperazin-1-yl]methyl]morpholin-4-yl]quinoxaline-5-carbonitrile]
Clearance of Human microsome [1]: 6.15 mL/min/kg

C[C@@H]1CN(c2ccc(C#N)c3ncccc23)C[C@H](CN2CCN(c3ccc(Cl)cc3)CC2)O1 [Example R2, 5-[(2S,6R)-2-[[4-(4-chlorophenyl)piperazin-1-yl]methyl]-6-methyl-morpholin-4-yl]quinoline-8-carbonitrile, reference compound]
IC50 (hERG channel): 0.77 µM
IC20 (hERG channel): 0.28 µM
hERG IC20 / TLR8 IC50 (hERG channel): 0.8
hERG IC20 / TLR7 IC50 (hERG channel): 1.3
hERG IC20 / TLR9 IC50 (hERG channel): 0.04
Clearance of Human microsome [1]: 15.43 mL/min/kg
